This note sets out measurements from ChEMBL document CHEMBL1140183, “Bornyl- and isobornyl-Delta8-tetrahydrocannabinols: a novel class of cannabinergic ligands” (J Med Chem, 2008).

One assay concerns the target Cannabinoid receptor 1 (Rattus norvegicus, UniProt P20272). The experiment in a line: Displacement of [3H]CP-55940 from CB1 receptor in rat brain synaptosome membrane. Type of assay: cell membranes.
A further assay addresses Cannabinoid receptor 2 (Mus musculus, UniProt P47936). The experiment in a line: Displacement of [3H]CP-55940 from CB2 receptor in mouse spleen membrane. It is filed as cell membranes. In general terms: In a radioligand displacement assay an active substance lowers the binding of a labelled ligand.

Sequence of Cannabinoid receptor 1 (P20272 whole entry): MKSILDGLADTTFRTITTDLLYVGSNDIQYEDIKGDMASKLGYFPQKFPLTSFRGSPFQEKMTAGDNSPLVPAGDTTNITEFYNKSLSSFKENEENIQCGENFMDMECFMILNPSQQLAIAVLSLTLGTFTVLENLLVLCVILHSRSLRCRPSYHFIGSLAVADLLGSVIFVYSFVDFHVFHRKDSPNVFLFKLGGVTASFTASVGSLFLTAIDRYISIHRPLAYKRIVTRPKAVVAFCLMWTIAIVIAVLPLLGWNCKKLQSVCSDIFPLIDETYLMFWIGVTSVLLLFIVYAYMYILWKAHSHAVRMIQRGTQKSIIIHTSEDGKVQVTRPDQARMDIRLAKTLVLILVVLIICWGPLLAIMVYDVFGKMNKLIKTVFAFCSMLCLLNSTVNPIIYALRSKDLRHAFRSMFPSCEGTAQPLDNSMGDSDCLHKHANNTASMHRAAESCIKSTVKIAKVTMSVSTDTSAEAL
Sequence of Cannabinoid receptor 2 (P47936 whole entry): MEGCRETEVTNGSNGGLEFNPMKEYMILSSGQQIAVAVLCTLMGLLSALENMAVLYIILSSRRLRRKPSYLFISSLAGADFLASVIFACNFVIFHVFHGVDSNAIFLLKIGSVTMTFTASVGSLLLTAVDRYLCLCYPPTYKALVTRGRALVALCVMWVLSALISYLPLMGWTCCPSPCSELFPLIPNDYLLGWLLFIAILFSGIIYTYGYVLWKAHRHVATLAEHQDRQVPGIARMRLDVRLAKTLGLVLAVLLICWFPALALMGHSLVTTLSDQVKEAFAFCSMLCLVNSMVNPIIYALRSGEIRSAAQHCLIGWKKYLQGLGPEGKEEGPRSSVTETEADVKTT

The Ki is the dissociation constant of the complex between target and ligand, obtained from inhibition or displacement. A high value points to weaker binding. Turning to `CC1=CC[C@@H]2[C@@H](C1)c1c(O)cc([C@@H]3C[C@@H]4CC[C@]3(C)C4(C)C)cc1OC2(C)C`, the values for the Ki on Cannabinoid receptor 1 and on Cannabinoid receptor 2 were 60.2 nM and 6.1 nM, respectively.
In the case of `CC1=CC[C@@H]2[C@@H](C1)c1c(ccc(C[C@@H]3C[C@@H]4CC[C@]3(C)C4(C)C)c1O)OC2(C)C`, the Ki on Cannabinoid receptor 1 turned out to be 49 nM; at Cannabinoid receptor 2 it was 49.5 nM.
The corresponding values for `CC1=CC[C@@H]2[C@@H](C1)c1c(O)cc([C@H]3C[C@@H]4CC[C@]3(C)C4(C)C)cc1OC2(C)C` are 8.9 nM and 7.4 nM.
The corresponding values for `CC1=CC[C@@H]2[C@@H](C1)c1c(ccc(C[C@H]3C[C@@H]4CC[C@]3(C)C4(C)C)c1O)OC2(C)C` are 32.7 nM and 30.5 nM.
